Measurements: patent US11000033B2, “Ketone or oxime compound, and herbicide” (NISSAN CHEMICAL CORPORATION, priority 2014, dated 2021)

Columns and labels:
Format in all cases: in vivo
[1] = test system: transplanted rice plant; assay: Test Example 1: effect on crop, application before weed generation in submerged conditions (symbol a); conditions: application herbicide amount 320 g/ha
How it was run: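 Rice at 2.5 leaf stage transplanted into submerged soil (4 cm depth) sown with three weed species; herbicide applied before weed emergence.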

[2] = test system: Echinochloa crus-galli var. crus-galli; assay: Test Example 3: herbicidal effect by foliage application, Wagner pot (symbol H); conditions: application herbicide amount 320 g/ha, Table 24
How it was run: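 Herbicidal activity was rated three weeks after a foliar spray of diluted emulsion concentrate, applied at a predetermined dose to plants grown for 14 days from seed in waterlogged alluvial soil within a 25–30 °C greenhouse.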

[3] = test system: Alopecurus myosuroides; assay: Test Example 4: herbicidal effect by soil treatment (symbol J); conditions: application herbicide amount 320 g/ha
How it was run: (§1)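 Seeds were sown in sterilized diluvial soil, covered with about 1.5 cm of soil, and the soil surface was sprayed with a water-diluted emulsion of the compound at a predetermined rate. Plants grew in a greenhouse at 25° C. to 30° C.; effects were scored visually 3 weeks after application.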

[4] = test system: Abutilon theophrasti; assay: Test Example 4: herbicidal effect by soil treatment (symbol M); conditions: application herbicide amount 320 g/ha
How it was run: as §1

[5] = test system: Chenopodium album; assay: Test Example 4: herbicidal effect by soil treatment (symbol O); conditions: application herbicide amount 320 g/ha
How it was run: as §1

[6] = test system: Stellaria media; assay: Test Example 4: herbicidal effect by soil treatment (symbol P); conditions: application herbicide amount 320 g/ha
How it was run: as §1

[7] = test system: Galium spurium; assay: Test Example 4: herbicidal effect by soil treatment (symbol Q); conditions: application herbicide amount 320 g/ha
How it was run: as §1

[8] = test system: corn; assay: Test Example 4: effect on crop by soil treatment (symbol c); conditions: application herbicide amount 320 g/ha
How it was run: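 Sterilized diluvial soil, spot sowing, ~1.5 cm soil cover; greenhouse 25–30° C.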

[9] = test system: Echinochloa crus-galli var. crus-galli; assay: Test Example 5: herbicidal effect by foliage application, plastic box (symbol H); conditions: 320 g/ha, 3 weeks after application
How it was run: (§2)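 Post-emergence spray; diluvial soil (sterilized), ~1.5 cm seed cover; greenhouse 25–30° C; 14-day-old plants; water-diluted emulsion at predetermined dose; visual score at 3 wk post-treatment.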

[10] = test system: Alopecurus myosuroides; assay: Test Example 5: herbicidal effect by foliage application, plastic box (symbol J); conditions: 320 g/ha, 3 weeks after application
How it was run: as §2

[11] = test system: Lolium multiflorum Lam.; assay: Test Example 5: herbicidal effect by foliage application, plastic box (symbol K); conditions: 320 g/ha, 3 weeks after application
How it was run: as §2

[12] = test system: Apera spica-venti; assay: Test Example 5: herbicidal effect by foliage application, plastic box (symbol L); conditions: 320 g/ha, 3 weeks after application
How it was run: as §2

[13] = test system: Amaranthus retroflexus; assay: Test Example 5: herbicidal effect by foliage application, plastic box (symbol N); conditions: 320 g/ha, 3 weeks after application
How it was run: as §2

[14] = test system: Chenopodium album; assay: Test Example 5: herbicidal effect by foliage application, plastic box (symbol O); conditions: 320 g/ha, 3 weeks after application
How it was run: as §2

[15] = test system: Veronica persica; assay: Test Example 5: herbicidal effect by foliage application, plastic box (symbol R); conditions: 320 g/ha, 3 weeks after application
How it was run: as §2

[16] = test system: corn; assay: Test Example 5: effect on crop by foliage application, plastic box (symbol c); conditions: 320 g/ha, 3 weeks after application
How it was run: (§3)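 Soil: sterilized diluvial. Container: plastic box, 21 × 13 cm, 7 cm deep. Sowing: spot-like, ~1.5 cm cover. Growth: greenhouse, 25° C. to 30° C.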

[17] = test system: soybean; assay: Test Example 5: effect on crop by foliage application, plastic box (symbol d); conditions: 320 g/ha, 3 weeks after application
How it was run: as §3

`COc1cc(Br)cc(C)c1C1=C(O)CC(CC(C)=O)C1=O` (centres unmarked) [7-027, 2-(4-bromo-2-methoxy-6-methylphenyl)-3-hydroxy-5-(2-oxopropyl)cyclopent-2-enone] was tested, and the “Effect grade on crop, a: transplanted rice plant” value [1] was 3 (Herbicidal ratio of 40% or higher and lower than 70%), the “H (Echinochloa crus-galli var. crus-galli) herbicidal effect grade” value [2] was 5 (Herbicidal ratio of 90% or more (almost completely withered)) and the “Herbicidal effect grade, J: Alopecurus myosuroides” value [3] was 5 (Herbicidal ratio of 90% or more (almost completely withered)). The “Herbicidal effect grade, M: Abutilon theophrasti” value [4] was 0 (Herbicidal ratio of 5% or lower (almost no effect)), the “Herbicidal effect grade, O: Chenopodium album” value [5] was 0 (Herbicidal ratio of 5% or lower (almost no effect)) and the “Herbicidal effect grade, P: Stellaria media” value [6] was 0 (Herbicidal ratio of 5% or lower (almost no effect)). For the same compound, the “Herbicidal effect grade, Q: Galium spurium” value [7] was 0 (Herbicidal ratio of 5% or lower (almost no effect)), the “Effect on crop grade, c: corn” value [8] was 3 (Herbicidal ratio of 40% or higher and lower than 70%) and the “H: Echinochloa crus-galli var. crus-galli, herbicidal effect (criteria of Test Example 1)” value [9] was 5 (Herbicidal ratio of 90% or more (almost completely withered)). The “J: Alopecurus myosuroides, herbicidal effect (criteria of Test Example 1)” value [10] was 1 (Herbicidal ratio of 5% or higher and lower than 20%), the “K: Lolium multiflorum Lam., herbicidal effect (criteria of Test Example 1)” value [11] was 5 (Herbicidal ratio of 90% or more (almost completely withered)) and the “L: Apera spica-venti, herbicidal effect (criteria of Test Example 1)” value [12] was 5 (Herbicidal ratio of 90% or more (almost completely withered)). For the same compound, the “N: Amaranthus retroflexus, herbicidal effect (criteria of Test Example 1)” value [13] was 0 (Herbicidal ratio of 5% or lower (almost no effect)), the “O: Chenopodium album, herbicidal effect (criteria of Test Example 1)” value [14] was 0 (Herbicidal ratio of 5% or lower (almost no effect)) and the “R: Veronica persica, herbicidal effect (criteria of Test Example 1)” value [15] was 0 (Herbicidal ratio of 5% or lower (almost no effect)). The “c: corn, effect on crop (criteria of Test Example 1)” value [16] was 5 (Herbicidal ratio of 90% or more (almost completely withered)) and the “d: soybean, effect on crop (criteria of Test Example 1)” value [17] was 0 (Herbicidal ratio of 5% or lower (almost no effect)).
